Measured values as given in patent US20190004043A1 (priority 2015, published 2019).
“Also recorded” adds a separate entry of the source. Where two headings read alike, the source gives them in different places.

Tests used:
Format in all cases: binding
[1] = molecular target: T1, Torpedo nicotinic Acetylcholine Receptor (Tetronarce californica, UniProt P02710+P02714+P02718); assay: Lateral flow test with two test lines: dose-response competition with biotinylated toxin tracer; conditions: for coloration of the two test lines / inhibition of labelled ligand binding: toxin 0.01 to 1 μM
T1 sequence (P02718 22-522): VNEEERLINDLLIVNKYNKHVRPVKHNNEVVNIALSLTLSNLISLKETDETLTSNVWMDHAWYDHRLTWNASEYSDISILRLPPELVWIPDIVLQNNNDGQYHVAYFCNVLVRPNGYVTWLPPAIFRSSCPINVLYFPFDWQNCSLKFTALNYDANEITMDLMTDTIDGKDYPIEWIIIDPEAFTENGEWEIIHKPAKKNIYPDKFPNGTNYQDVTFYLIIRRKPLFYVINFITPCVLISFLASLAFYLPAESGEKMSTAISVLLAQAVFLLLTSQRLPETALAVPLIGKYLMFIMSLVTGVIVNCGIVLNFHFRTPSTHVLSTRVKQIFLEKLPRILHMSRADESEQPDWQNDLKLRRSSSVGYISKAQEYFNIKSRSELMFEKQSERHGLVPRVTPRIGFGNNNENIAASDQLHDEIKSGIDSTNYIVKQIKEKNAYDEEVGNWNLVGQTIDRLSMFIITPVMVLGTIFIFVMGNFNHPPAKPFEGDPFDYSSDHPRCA
T1 sequence (P02714 18-506): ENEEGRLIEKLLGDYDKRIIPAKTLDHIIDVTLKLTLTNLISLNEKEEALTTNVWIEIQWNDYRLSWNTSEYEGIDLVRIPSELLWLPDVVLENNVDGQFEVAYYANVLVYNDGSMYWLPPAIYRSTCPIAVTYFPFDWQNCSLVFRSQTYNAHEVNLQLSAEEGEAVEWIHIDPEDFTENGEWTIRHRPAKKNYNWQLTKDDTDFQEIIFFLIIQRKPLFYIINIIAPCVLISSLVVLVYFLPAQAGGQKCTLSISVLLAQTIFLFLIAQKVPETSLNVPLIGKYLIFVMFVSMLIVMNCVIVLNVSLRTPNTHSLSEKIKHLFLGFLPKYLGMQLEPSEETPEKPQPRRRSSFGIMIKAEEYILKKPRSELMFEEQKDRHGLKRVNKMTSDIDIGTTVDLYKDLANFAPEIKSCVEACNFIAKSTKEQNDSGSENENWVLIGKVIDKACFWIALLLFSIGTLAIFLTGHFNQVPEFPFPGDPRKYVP
T1 sequence (P02712 25-493, further chain): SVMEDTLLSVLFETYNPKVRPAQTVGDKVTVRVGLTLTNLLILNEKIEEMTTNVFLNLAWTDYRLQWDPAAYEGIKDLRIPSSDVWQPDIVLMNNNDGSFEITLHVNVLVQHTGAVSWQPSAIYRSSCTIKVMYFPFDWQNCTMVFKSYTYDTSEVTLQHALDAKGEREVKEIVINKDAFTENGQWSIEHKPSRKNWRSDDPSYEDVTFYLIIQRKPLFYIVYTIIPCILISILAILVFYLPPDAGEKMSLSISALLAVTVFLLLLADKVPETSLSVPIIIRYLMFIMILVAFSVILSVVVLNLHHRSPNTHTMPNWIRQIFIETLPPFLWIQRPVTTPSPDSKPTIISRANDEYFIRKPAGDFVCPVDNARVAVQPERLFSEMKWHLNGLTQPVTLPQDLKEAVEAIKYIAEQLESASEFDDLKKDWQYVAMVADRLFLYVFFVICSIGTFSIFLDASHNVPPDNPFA
T1 sequence (P02710 25-461): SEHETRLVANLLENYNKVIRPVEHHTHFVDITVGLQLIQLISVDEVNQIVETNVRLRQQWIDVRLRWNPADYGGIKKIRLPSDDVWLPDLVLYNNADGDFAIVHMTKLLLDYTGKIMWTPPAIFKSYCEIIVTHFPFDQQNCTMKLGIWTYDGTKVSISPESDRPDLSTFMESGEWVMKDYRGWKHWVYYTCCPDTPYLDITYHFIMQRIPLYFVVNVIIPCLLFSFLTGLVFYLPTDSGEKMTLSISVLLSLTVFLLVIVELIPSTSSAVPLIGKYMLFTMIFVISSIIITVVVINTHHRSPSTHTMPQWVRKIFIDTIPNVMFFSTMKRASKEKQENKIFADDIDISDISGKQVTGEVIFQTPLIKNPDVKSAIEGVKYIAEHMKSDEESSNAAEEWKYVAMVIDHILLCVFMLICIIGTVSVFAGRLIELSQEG
Method: The device used was a device manufactured according to above example 1, with the exception that two test lines were used instead of one test line and one control line. The control line is used to control if the strip test works properly. We controlled that all the lateral flow test devices were working well and we carried out several tests without toxins that we took as control (Ctrl) that the device was working as expected (FIG. 4).
In the present example several experiments were carried out using different toxins at different concentrations. Through the format two test lines, we tested the potency of the toxins at a given concentration.
In particular, different doses of the snake toxin a-bungarotoxin were tested between 0.01 to 10 μM (FIG. 4A). For that purpose, 1 mL of α-bungarotoxin at a concentration of 10 μM was prepared from the commercial a-bungarotoxin (Sigma; 250 μM) using TBS-BSA buffer (150 mM NaCl, 50 mM Tris-HCl, 0.5% BSA, pH 7.5). Successively, 1 mL of 1 μM α-bungarotoxin was prepared by diluting 10-times the previous concentrated solution using TBS-BSA buffer. Serial 10-times dilutions were performed as described to obtain the 0.1 and 0.01 μM α-bungarotoxin solutions using TBS-BSA buffer.
Different doses of the dinoflagellate toxin pinnatoxin-G ranging from 0.01 to 100 μM were also tested (FIG. 4B). For that purpose, 1 mL of pinnatoxin-G at a concentration of 100 μM was prepared from the synthetic pinnatoxin-G stock (A. Zakarian; 2 mM) using TBS-BSA buffer (150 mM NaCl, 50 mM Tris-HCl, 0.5% BSA, pH 7.5). Successively, 1 mL of 50 μM pinnatoxin-G was prepared by diluting 2-times the previous concentrated solution using TBS-BSA buffer. A solution of 1 μM pinnatoxin-G was obtained by diluting 50-times the previous 50 μM pinnatoxin-G solution using TBS-BSA buffer. Serial 10-times dilutions were performed as described to obtain the 0.1 and 0.01 μM pinnatoxin-G solutions using TBS-BSA buffer.
Finally, different doses of the dinoflagellate toxin 13,19-didesmethyl-spirolide C ranging from 0.01 to 10 μM were also tested. For that purpose, 1 mL of 13,19-didesmethyl-spirolide C at a concentration of 10 μM was prepared from the concentrated 13,19-didesmethyl-spirolide C stock (CIFGA; 100 μM) using TBS-BSA buffer (150 mM NaCl, 50 mM Tris-HCl, 0.5% BSA, pH 7.5). Successively, 1 mL of 1 μM 13,19-didesmethyl-spirolide C was prepared by diluting 10-times the previous concentrated solution using TBS-BSA buffer. Serial 10-times dilutions were performed as described to obtain the 0.1 and 0.01 μM 13,19-didesmethyl-spirolide C solutions using TBS-BSA buffer.
The competition experiments were carried out as disclosed in above example 2.

[2] = molecular target: T1, Torpedo nicotinic Acetylcholine Receptor; assay: as above; conditions: lower concentrations (0.001 to 1 μM)
[3] = molecular target: T1, Torpedo nicotinic Acetylcholine Receptor

## C=C1CCCC2=NCC(C)C(C)CC23CCC(C2C=C(C)C(=O)O2)=C(C)C3/C=C(\C)C(O)CC2CCC3(CCC4(OC(CCC4O)C1)O3)O2 (centres unmarked) [13,19-didesmethyl-spirolide C]
[1]; all concentrations, 0.01 to 10 μM
  inhibition of binding of the biotinylated toxin tracer: inhibited the binding of the biotinylated toxin tracer at all concentration
[1]; toxin 1 μM
  inhibition of binding of the labelled ligand (test lines colorless): 100%
[1]; toxin 10 μM
  inhibition of binding of the labelled ligand (test lines colorless): 100%
[1]
  coloration of the two test lines / inhibition of labelled ligand binding: strong inhibition

## α-bungarotoxin
[1]
  coloration of the two test lines / binding of labelled tracer: inhibited the binding of the labelled tracer in both test lines
  coloration of the two test lines versus control test: both test lines are colored showing, however, a less intensity than in the control test
  inhibition of binding of the labelled ligand (test lines colorless): 100%

## C=CC1=C[C@@H]2[C@@H]3O[C@]4(C[C@H]5CCC[C@@]6(CC[C@@]7(O[C@@H](CC[C@@]7(C)O)CC(=C)CCCC7=NC[C@H](C)[C@@H](C)C[C@@]72CC1)O6)O5)C[C@@H](C)[C@@H](O)[C@H]3O4 [pinnatoxin-G]
[2]
  coloration of the two test lines versus control test: only the upper test line was colored but to a less intensity than in the control test
[1]; toxin 50 μM
  coloration of the two test lines versus control strip: both test lines were colorless
  inhibition of binding of the labelled ligand (test lines colorless): 100%
[1]; toxin 100 μM
  coloration of the two test lines versus control strip: both test lines were colorless
  inhibition of binding of the labelled ligand (test lines colorless): 100%
[1]
  coloration of the two test lines / inhibition of labelled ligand binding: only the second test line was colored with a lower intensity than was shown by the control strip

## C=C1CCCC2=NCC(C)C(C)CC23CCC(C2C=C(C)C(=O)O2)=C(C)C3/C=C(/C)C(O)CC2CCC3(CCC4(OC(CCC4(C)O)C1)O3)O2 (centres unmarked) [13-desmethyl-spirolide C]
[3]
  coloration of test line versus control line / inhibition of tracer binding: a colorless or a less-colored band in the test zone; also recorded: inhibits the binding of the tracer
